Results: patent publication US11571430B2, “Platinum(II) ammine selenourea complexes and methods of treating cancer” (KING FAHD UNIVERSITY OF PETROLEUM AND MINERALS, priority 2020, dated 2023)
Entries after “also recorded” stand apart in the source; their conditions may differ.

What was measured:
Assay type in all cases: cell-based, human
[1] = test system: HCT-116 (colon cancer cells); test: In vitro cytotoxicity, MTT assay, HCT-116; conditions: for IC50: 72 h incubation, HCT-116 colon cancer cells, read-out: IC50 values against HCT-116; for in vitro cytotoxicity in words, HCT-116: HCT-116, compared to cisplatin
Protocol: (§1) The solutions of Pt(II) complexes 1-5 and cisplatin (classical standard control) with 1.0 μM, 5.0 μM, 10.0 μM, 25.0 μM, 50.0 μM and 100.0 μM concentrations were prepared in DMEM. The cancer cells, HeLa (cervical cancer), A549 (Lung cancer) and HCT-116 (colon cancer) were seeded and maintained in quadruplicate in a 96-well tissue culture plate at 5×10^4 cells per well in 200 μL of the same medium. The cancer cells were incubated for 24 hours before the treatment. All compounds were dissolved in 50 vol % DMSO (50/50 v/v DMSO/DMEM). Therefore, DMSO was used as a negative control. The final DMSO concentration in each well, was less than 0.1%. The cancer cells were treated with the synthesized complexes (1-5) along with cisplatin and the resultant cultures were incubated for 72 h. The medium of wells was discarded and 100 μL DMEM containing MTT (3-(4,5-dimethylthiazol-2-yl)-2,5-diphenyltetrazolium bromide) (5 mg/mL) was added to the wells and incubated in a CO2 incubator at 37° C. in the dark for 4 hrs. After incubation, a purple colored formazan (artificial chromogenic dye, a product of the reduction of water insoluble tetrazolium salts e.g., MTT by dehydrogenases and reductases) in the cells is produced and appeared as dark crystals in the bottom of the wells. The medium of culture was discarded from each well carefully to avoid disruption of the monolayer. 100 μL of isopropanol was added in each well. The solution was thoroughly mixed in the wells to dissolve the formazan crystals which ultimately results into a purple solution. The absorbance of the 96-well plate was taken at 570 nm with Mithras 2LB943 against reagent blank.
(§2) The in vitro cytotoxicity of the prepared compounds (1-5) and cisplatin in DMSO was examined by the MTT assay against three human cancer cells namely, HeLa (cervical cancer cells), A549 (lung cancer cells) and HCT-116 (colon cancer cells). The survival of the cells as a function of concentration of compounds 1-5 (and compared to cisplatin) is shown in FIGS. 1A-1F, 2, 3A-3F, 4, 5A-5F, and 6. […] See Altoum A O S, Alhoshani A, Alhosaini K, et al (2017a) Synthesis, characterization and in vitro cytotoxicity of platinum(II) complexes of selenones [Pt(selenone)2Cl2]. J Coord Chem 70:1020-1031; Altoum A O S, Vančo J, Křikavová R, et al (2017b) Synthesis, structural characterization and cytotoxicity evaluation of platinum(II) complexes of heterocyclic selenones. Polyhedron 128:2-8; Ahmad S, Altoum A O S, Vančo J, et al (2018) Synthesis, crystal structure and anticancer activity of tetrakis(N-isopropylimidazolidine-2-selenone)platinum(II) chloride. J Mol Struct 1152:232-236; and Alhoshani A, Seliman A A A, Altoum A O, et al (2019) Synthesis, X-ray structure and in vitro cytotoxicity of trans-diammineplatinum(II) complexes of selenones, trans-[Pt(NH3)2(selenone)2](NO3)2. Polyhedron 158:234-240, each incorporated herein by reference in their entirety.

A549 (lung cancer cells) = test: In vitro cytotoxicity, MTT assay, A549; conditions: for IC50: 72 h incubation, A549 lung cancer cells, read-out: IC50 values against A549; for in vitro cytotoxicity in words, A549: A549, compared to cisplatin
Protocol: as §1, §2

[2] = test system: HeLa (cervical cancer cells); test: In vitro cytotoxicity, MTT assay, HeLa; conditions: for IC50: 72 h incubation, HeLa cervical cancer cells, read-out: IC50 values against HeLa; for in vitro cytotoxicity in words, HeLa: compared to cisplatin
Protocol: as §1, §2

SMILES	IC50 [1] [µM]	IC50 (A549 (lung cancer cells)) [µM]	IC50 [2] [µM]	in vitro cytotoxicity in words, HCT-116 [1]	in vitro cytotoxicity in words, A549 (A549 (lung cancer cells))	in vitro cytotoxicity in words, HeLa [2]
N.N.[Cl][Pt][Cl] [Cisplatin, cis-diamminedichloridoplatinum(II), reference compound]	> 100	12.5	8.1	–	–	–
N.N.NC(N)=[Se][Pt+2][Se]=C(N)N.O=[N+]([O-])[O-].O=[N+]([O-])[O-] [Complex 1, [Pt(NH3)2(Seu)2](NO3)2]	5.4	> 100	> 100	has activity against HCT-116 only; also recorded: excellent cytotoxic activity	no activity	no activity
CNC(NC)=[Se][Pt+2][Se]=C(NC)NC.N.N.O=[N+]([O-])[O-].O=[N+]([O-])[O-] [Complex 2, [Pt(NH3)2(Me2Seu)2](NO3)2]	> 100	54	12.2	almost inactive	almost inactive	cytotoxicity comparable to cisplatin
C1CNC(=[Se][Pt+2][Se]=C2NCCCN2)NC1.N.N.O=[N+]([O-])[O-].O=[N+]([O-])[O-] [Complex 4, [Pt(NH3)2(DiazSe)2](NO3)2]	7.7	6.74	3.7	cytotoxicity higher than cisplatin; also recorded: excellent cytotoxic activity	cytotoxicity higher than cisplatin; also recorded: excellent cytotoxic activity	cytotoxicity higher than cisplatin; also recorded: excellent cytotoxic activity
C1CCNC(=[Se][Pt+2][Se]=C2NCCCCN2)NC1.N.N.O=[N+]([O-])[O-].O=[N+]([O-])[O-] [Complex 5, [Pt(NH3)2(DiapSe)2](NO3)2]	> 100	> 100	> 100	ineffective	ineffective	ineffective
